Reference: patent US20250170101A1, “MONOACYLGLYCEROL LIPASE INHIBITORS AND USE THEREOF FOR THE TREATMENT AND MANAGEMENT OF PAIN AND RELATED CONDITIONS” (Psy Therapeutics, Inc., priority 2021, published 2025)
pIC50: −log10 of the molar value.

What was measured:
[1] = Pharmacokinetic study of compounds in mice, Example 25; assay type: in vivo, male C57BL/6 mice; conditions: Brain, Oral, 5 mg/kg
Experimental: Healthy male C57BL/6 mice (8-12 weeks old) weighing between 17 to 35 g were procured from Global, India. Temperature and humidity were maintained at 22±3° C. and 30-70%, respectively and illumination was controlled to give a sequence of 12 hr light and 12 hr dark cycle. Temperature and humidity were recorded by auto-controlled data logger system. All the animals were provided laboratory rodent diet. Reverse osmosis water treated with ultraviolet light was provided ad libitum.
Protocol A: Twenty-four male mice were divided into two groups as; Group 1: 30 mg/kg/IP; Plasma and brain; Number of animals=12; Animal #1-12. Group 2: 30 mg/kg/PO; Plasma and brain; Number of animals=12; Animal #13-24. […] All samples were processed for analysis by protein precipitation using acetonitrile and analyzed with fit-for-purpose LC/MS/MS method (LLOQ—2.02 ng/mL for plasma and 6.06 ng/g for brain). Pharmacokinetic parameters were calculated using the non-compartmental analysis tool of Phoenix WinNonlin®.
Protocol B: Thirty six mice were included into the study and divided in to three groups as Group 1 (n=12), Group 2 (n=12) and Group 3 (n=12) with n=2 mice per time-point design. […] Plasma and brain samples were quantified by fit-for-purpose LC-MS/MS method (LLOQ: 1.01 ng/mL for plasma and 2.02 ng/mL for brain). […]

[2] = target: T1, human MAGL (Homo sapiens, UniProt Q99685); experiment: MAGL inhibition potency (IC50) with 4NPA substrate, Example 20, methods of Table C; assay type: biochemical; conditions: Method 12: Enzyme Conc 15, Reaction Biology (15 nM); read-out: MAGL Potency (Detection Method)
T1 construct: recombinant MAGL enzyme (aa 2-303 RBC, internal preparation)
T1 sequence (Q99685 2-303): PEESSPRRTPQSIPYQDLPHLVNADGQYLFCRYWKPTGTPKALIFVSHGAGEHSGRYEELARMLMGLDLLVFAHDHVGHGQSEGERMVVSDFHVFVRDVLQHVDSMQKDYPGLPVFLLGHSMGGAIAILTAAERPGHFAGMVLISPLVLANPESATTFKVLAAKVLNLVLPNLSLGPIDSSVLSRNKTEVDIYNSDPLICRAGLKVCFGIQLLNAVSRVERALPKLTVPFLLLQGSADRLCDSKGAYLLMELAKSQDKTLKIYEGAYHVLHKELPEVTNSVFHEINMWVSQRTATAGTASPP

[3] = target: T2, MAGL enzyme (Homo sapiens, UniProt Q99685); experiment: MAGL reversible inhibition assay (washout), Example 22; assay type: biochemical; parameters: % MAGL activity returning after washout: concentration or dose not given beside the values
T2 sequence (Q99685 1-303): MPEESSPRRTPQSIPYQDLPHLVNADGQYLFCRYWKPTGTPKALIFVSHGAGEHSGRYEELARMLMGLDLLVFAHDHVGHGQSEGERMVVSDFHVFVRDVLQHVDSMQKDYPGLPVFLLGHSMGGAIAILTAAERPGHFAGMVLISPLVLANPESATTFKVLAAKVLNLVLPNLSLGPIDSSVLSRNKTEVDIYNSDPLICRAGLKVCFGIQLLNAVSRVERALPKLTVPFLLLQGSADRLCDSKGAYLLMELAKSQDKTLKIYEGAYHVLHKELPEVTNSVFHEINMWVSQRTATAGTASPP
Experimental: The reversible mechanism of MAGL inhibition of a test compound of Formula (I) can be determined. Flag-tagged MAGL enzyme will be immobilized on anti-Flag beads. Immobilized enzyme will be incubated+/−inhibitor at a dose that produces complete inhibition. Colorimetric substrate (4-NPA) will be added and the reaction monitored on a plate reader for 30 minutes to verify complete inhibition. Immobilized enzyme will then be washed thoroughly to remove the inhibitor, and fresh substrate will be added. The reaction will be monitored for an additional 30 minutes; returning enzymatic activity will indicate reversibility of inhibition. […]
For some test compounds, % activity returning after washout may be less than 100%/if complete compound unbinding takes longer than 30 minutes.

| pIC50 [2] | degree to which MAGL enzymatic activity returned following washout of test compounds ([3]; pre-washout compound concentration 1 μM) | % MAGL activity returning after washout ([3]; relative to control (no inhibitor before washout), immediately following 30 minute washout) [%] | Structure (SMILES) | AUClast [1] [ng·h/mL] |
| --- | --- | --- | --- | --- |
| – | – | – | Cc1cnn(C2CC3(C2)CN(C(=O)c2cc(O)ccc2F)C3)c1-c1cc(F)ccc1F (single isomer, unassigned) [Compound 476, {6-[5-(2,5-difluorophenyl)-4-methyl-1-pyrazolyl]-2-aza-2-spiro[3.3]heptyl}(2-fluoro-5-hydroxyphenyl)methanone] | 223.64 |
| > 7.30 | 100 | >50 | Cc1cn(C2CC3(C2)CN(C(=O)c2cc(O)ccc2F)C3)nc1-c1cc(F)ccc1Cl (single isomer, unassigned) [Compound 520, {6-[3-(2-chloro-5-fluorophenyl)-4-methyl-1-pyrazolyl]-2-aza-2-spiro[3.3]heptyl}(2-fluoro-5-hydroxyphenyl)methanone] | – |
